Measured values: patent publication US11331360B2, “Commiphora molmol (myrrh) resin extracts and uses thereof for wound healing and treatment and prevention of mucositis and other diseases” (Umayana LLC, priority 2018, dated 2022)

Tested on: oral mucositis
Assay: Treatment of oral mucositis in cancer subjects (case examples 2-6)
Type: in vivo, human
Settings: grade IV mucositis, listed agents used with cryotherapy
Method: The efficacy and safety of the compositions comprising the disclosed acidic extract of myrrh resin were clinically assessed for prevention, treatment and/or improvement of oral and gastrointestinal mucositis.
In place of prophylactic incubation, the subject began using the composition comprising the disclosed acidic extract of myrrh resin in the form of gel four times a day.
(§1) The subject began using the composition comprising the disclosed acidic extract of myrrh resin in the form of gel four times a day.
G: oral examination performed on the second day of treatment. H: oral examination performed on the third day of treatment. I: oral examination performed on the fourth day of treatment.
as §1
D, E and F: oral examination performed on the first day of treatment. G, H, I and J: oral examination performed on the third day of treatment. K, L and M: oral examination performed on the fifth day of treatment.
B: oral examination performed on the first day of treatment. C: oral examination performed on the second day of treatment. D: oral examination performed on the third day of treatment. E: oral examination performed on the fourth day of treatment.

[1] = Example 2: Hodgkin's Lymphoma, high dose chemotherapy
[2] = Example 4: pancreatic adenocarcinoma, chemotherapy
[3] = Example 5: Larynx CA, induction chemotherapy
[4] = Example 6: larynx malignant neoplasma, radiation therapy

Row | Structure (SMILES) | effect of earlier treatment of the oral lesions [1] | effect of earlier treatment of the oral lesions [2] | effect of earlier treatment of the oral lesions [3] | effect of earlier treatment of the oral lesions [4]
1 | N=C(NCCCCCCNC(=N)NC(=N)Nc1ccc(Cl)cc1)NC(=N)Nc1ccc(Cl)cc1.O=C(O)[C@H](O)[C@@H](O)[C@H](O)[C@H](O)CO.O=C(O)[C@H](O)[C@@H](O)[C@H](O)[C@H](O)CO [chlorhexidine gluconate] | not effective | mild decrease in mucositis | mild decrease in mucositis | not effective
2 | O=C([O-])O.[Na+] [sodium bicarbonate] | not effective | mild decrease in mucositis | mild decrease in mucositis | not effective
